# Marks after values point to notes of the source that are not given here.
# Columns and labels:
# [1] = tested on: breast cancer cells (MCF-7) in the background of human lymphocytes; experiment: Co-polarized substrates in model voxels of breast cancer cells in lymphocyte background; assay type: cell-based; settings: for Metabolic conversion (a.u) 50% cancer cells: 1 million MCF-7 cells and 20 million lymphocytes; for Metabolic conversion (a.u) 100% cancer cells: 2 million MCF-7 cells, 2x2x2 voxel model; for Metabolic conversion (a.u) 0% cancer cells: 40 million lymphocytes
# Description: The real time metabolism of breast cancer cells was compared with the metabolism of the lymph node background in model systems containing either only cancer cells (100% cancer), only lymphocytes (0% cancer) or a combination of the two cell types (50% cancer) in cellular concentrations expected to be present in a spatially resolved lymph node containing a macro metastasis. In the clinic, the interest is focused on macro metastasis since these are statistically those, which indicate aggressive cancers (P. Blumencranz, Surg Oncol Clin N Am 20 (2011) 467-485).
# The model system was designed assuming a macro metastasis, which is defined to have a minimum diameter of 2 mm (P J. Diest et al., (2010) Breast disease 31: 65-81). In a 2×2×2 mm voxel, 50% of the volume will be cancer cells assuming that the macro metastasis is shaped as a sphere. Three experimental systems were established and carried out: 1) 2 million MCF-7 cells (corresponding to 100% cancer cells in a 2×2×2 voxel), 2) 1 million MCF-7 cells and 20 million lymphocytes (corresponding to 50% cancer cells in a 2×2×2 voxel) and 3) 40 million lymphocytes (corresponding to 0% cancer cells in a 2×2×2 voxel). The cells were grown and harvested or purified as described in example 3.10. The DNP preparations of 1-^13C-pyruvate and 1,3-^13C2-ethyl acetoacetate were made as described in examples 3.10. and 3.11. The substrates (20 μmol each) were co-polarized. The polarization, dissolution and administration to the cells were made as in example 3.11.
# [2] = tested on: human prostate cancer cells (PC-3); experiment: Metabolism of hyperpolarized substrates in intact human prostate cancer cells; assay type: cell-based; settings: for Metabolic conversion (a.u.) PC-3 cells: 20 million cells, maximum signal of product 1-13C lactate
# Description: (§1) Human breast cancer cells (MCF-7) and human prostate cancer cells (PC-3) were grown in RPMI medium with 10% FBS and antibiotics. The cells were at confluence harvested by trypsination and washed once with 5 ml PBS. They were spun down and re-dissolved to a concentration of 20 million cells in 500 μl 40 mM phosphate buffer pH 7.3.
# (§2) The cell suspensions were transferred to a 10 mm NMR tube and placed with connecting tubing in a 14.1 T magnet at 37 C.
# (§3) Finland radical, carboxylic acid form (1 mg, 0.65 μmol) was dissolved in 1,3-^13C2 ethyl acetoacetate (50 μl, 51 mg, […]). To the solution was added a DMSO solution of the gadolinium complex ([alfa1,alfa4,alfa7-tris[(phenylmethoxy)methyl]-1,4,7,10-tetraazacyclododecane-1,4,7,10-tetraacetato(4-)]gadolinate(1-)]hydrogen) (0.8 mg of a 100 μmol/g solution). The concentration of radical and gadolinium were 13 mM and 1.6 mM respectively. 20 μmol of this composition was hyperpolarised under DNP conditions at 1.2 K in a 3.35 T magnetic field under irradiation with microwave (93.900 GHz). The polarization build-up constant was 750 s. The solid-state polarization was approx. 20%.
# (§4) The hyperpolarized sample was dissolved in 5 ml phosphate buffer (40 mM, pH 7.3). The pH after dissolution was 7.3. Following dissolution, 1 ml of the substrate mixture was injected into 20 million cells in suspension. A series of 20 degree pulses every 2 s (56 scans in total) was acquired. The acquisition was started just before injection of the hyperpolarized substrate. Data are presented metabolic signal build-up as a function of time and as maximum metabolite signal.
# (§5) The cells were grown and harvested or purified as described in example 3.10. The experiments were performed with single substrates administered to 20 million MCF-7 cells, PC-3 cells or lymphocytes dissolved in a volume of 500 μl 40 mM phosphate buffer pH 7.3. The cell suspensions were transferred to a 10 mm NMR tube and placed with connecting tubing in a 14.1 T magnet at 37° C.
# (§6) ^13C6-d7-glucose (22.8 mg, 0.118 mmol) was dissolved in polarization medium (25.0 mg). […]
# [3] = tested on: human breast cancer cells (MCF-7); experiment: Metabolism of hyperpolarized substrates in intact human breast cancer cells; assay type: cell-based; settings: for Metabolic conversion (a.u.) MCF-7 cells: 20 million cells, maximum signal of product 1-13C lactate; for conversion in breast cancer cells over lymphocytes: quantified by cell number
# Description: as §1, §2, §3, §4, §5
# ^13C6-d7-glucose (22.8 mg, 0.118 mmol) was dissolved in polarization medium (25.0 mg). The polarization medium was made of Ox063 radical (19.1 mg, 13.3 μmol) was dissolved in 465 μl water. To this solution was added Gadoteridol (40 mg of 50 μmol/g solution in water). Concentrations: [Ox063]=26.5 mM, [Gd]=4 mM. The total weight of the glucose preparation was: 47.8 mg yielding 2.47 mmol glucose/g preparation.
# 1-^13C pyruvic acid (55 μl, 70.0 mg) was mixed with Finland radical, sodium salt (1.5 mg, 0.94 μmol) and Gadoteridol (2.1 mg of 50 μmol/g solution in water). Concentrations of radical and Gadolinium were: 17 mM; 2 mM.
# 20 μmol of either substrate was polarized in a 3.3 T polarizer operating at […] and approx. 1.2 K. Following 45 minutes polarization the samples were dissolved in 5 ml 40 mM phosphate buffer pH 7.3. In the experiments with pyruvic acid an equimolar addition of NaOH was added to neutralize the acid. 2 ml of the dissolved substrate mixture was injected into the cells in suspension. A series of 20 degree pulses every 2 s (56 scans in total) was acquired. The acquisition was started just before injection of the hyperpolarized substrate. Data are presented as maximum metabolite signals, hyperpolarized 1-^13C lactate produced from either glucose or pyruvate.
# [4] = tested on: human lymphocytes; experiment: Metabolism of hyperpolarized substrates in intact human lymphocytes; assay type: cell-based; settings: for Metabolic conversion (a.u.) Lymphocytes: 20 million cells, maximum signal of product 1-13C lactate
# Description: Human lymphocytes were purified from whole blood. Whole blood samples were drawn from a healthy volunteer into heparinised venous blood collection tubes (Venosafe vacumtubes from Terumo). For each experiment the blood was purified freshly: Three and a half 10 mL tubes of blood were pooled in each of four 50 mL Leucosep (Greiner) tubes prepared with 15 mL Histopaque 1077 (Sigma). The Leucosep tubes were spun for 15 min at 800× g at 24 C. The plasma was removed and the white blood cells were transferred to a 50 mL falcon tube by decanting and diluted 1:2 in PBS-Mg—Ca for a total volume of 50 mL. The cells were sedimented by centrifugation at 250×g for 60 min. Diluting with trypan blue and counting in hemocytometer determined the total number of lymphocytes before sedimentation. All cells were viable and the total number of cells in each cell batch was approx. 60 million. The lymphocytes were redissolved to a concentration of 20 million cells in 500 μl 40 mM phosphate buffer pH 7.3.
# as §2, §3, §4, §5, §6
# [5] = tested on: prostate cancer cells (PC-3); experiment: In cell 13C-NMR detection of 1-13C-lactate using 1-13C-pyruvate as hyperpolarized marker; assay type: cell-based, human; settings: 5 million cells; PC-3 vs PNT-1A; FIG. 1
# Description: Step 1: 1-^13C pyruvic acid (1286 mg, 14.4 mmol) was mixed with 25 mg of trityl radical (Tris(8-carboxy-2,2,6,6-(tetra(methoxyethyl)-benzo-[1,2-4,5′]-bis-(1,3)-dithiole-4-yl)-methyl sodium salt) (15 mM) and gadolinium trimeric complex (Gadolinium chelate of 1,3,5-tris-(N-(DO3A-acetmido)-N-methyl-4-amino-2-methylphenyl)-[1,3,5]triazinane-2,4,6-trione)) (0.6 mM). A sample of this solution (9.2 mg) was hyperpolarized for 60 minutes, at 93.900 GHz and 1.3 K. The sample was dissolved in phosphate buffer (4 ml, pH 7.3, 40 mM) with addition of sodium hydroxide (11 μl, 12M) to neutralize the acid in the hyperpolarized sample. The hyperpolarized solution was further diluted with tempered (37° C.) buffer to 30 ml.
# Step 2: 500 μl of hyperpolarized sodium 1-^13C-pyruvate from step 1 was mixed into 5 million prostate cancer cells (PC-3, human prostate cell adenocarcinoma) in a 10 mm NMR tube and placed in a 9.4 T NMR magnet. Signals of 1-^13C-pyruvate and 1-^13C-lactate were detected by acquiring a set of ^13C-MR spectra every 3 s with a 15 degree RF pulse and the signal from 1-^13C-lactate was quantified.
# Using an identical protocol as outlined above, a second study was performed in healthy prostate cells (PNT-1A, immortalized healthy prostate cells).
# [6] = tested on: breast cancer cells (MDA-MB-231); experiment: In cell 13C-NMR detection of 1,4-13C2-malate using 1,4-13C2-fumarate as hyperpolarized marker; assay type: cell-based, human; settings: 5 million cells; 30 s; normalized to soluble protein; vs 184B5; FIG. 2
# Description: Step 1: 1,4-^13C2 Fumaric acid (274 mg, 2.32 mmol) was dissolved in a DMSO solution (1660 μl) of trityl radical (Tris(8-carboxy-2,2,6,6-(tetra(methoxyethyl)-benzo-[1,2-4,5′]-bis-(1,3)-dithiole-4-yl)-methyl sodium salt) (19 mM) and gadolinium trimeric complex (Gadolinium chelate of 1,3,5-tris-(N-(DO3A-acetmido)-N-methyl-4-amino-2-methylphenyl)-[1,3,5]triazinane-2,4,6-trione)) (0.8 mM). A sample of this solution (32.5 mg) was hyperpolarized for 60 minutes, at 93.900 GHz and 1.3 K. The sample was dissolved in phosphate buffer (4 ml, pH 7.3, 40 mM) with addition of sodium hydroxide (22 μl, 12M) to neutralize the acid in the hyperpolarized sample.
# Step 2: 100 μl of hyperpolarized sodium 1,4-^13C2-fumarate from step 1 was mixed into 500 μl RPMI medium containing 5 million breast cancer cells (MDA-MB-231, human epithelial breast cancer cell line) in a 5 mm NMR tube and placed in a 9.4 T NMR magnet. Signals of 1,4-^13C-malate were detected by acquiring a set of ^13C-MR spectra every 2 s with a 15 degree RF pulse. The amount of 1,4-^13C-malate was calculated 30 s after mixing the hyperpolarized sodium 1,4-^13C2-fumarate into the medium containing cells. Further, the amount of soluble protein in the MDA-MB-231 cells was determined, and the amount of 1,4-^13C-malate was normalized to the protein amount. […]
SMILES,Metabolic conversion (a.u) 50% cancer cells [1] [a.u.],Metabolic conversion (a.u) 100% cancer cells [1],Metabolic conversion (a.u) 0% cancer cells [1] [a.u.],"hydrolysis to 1,3-13C2 acetoacetate ([2]; 20 million intact PC-3 cells, FIG. 4)","hydrolysis to 1,3-13C2 acetoacetate ([3]; 20 million intact MCF-7 cells, FIG. 4)","hydrolysis to 1,3-13C2 acetoacetate ([4]; 20 million intact lymphocytes, FIG. 4)","metabolic conversion, healthy lymphocytes over cancer cells ([4]; cancer cells quantified by limit-of-detection)",Metabolic conversion (a.u.) PC-3 cells [2] [a.u.],Metabolic conversion (a.u.) MCF-7 cells [3] [a.u.],conversion in breast cancer cells over lymphocytes [3] [times],1-13C-lactate signal in PC-3 cells compared to non-cancerous prostate cells [5],Metabolic conversion (a.u.) Lymphocytes [4] [a.u.],"concentration of 1,4-13C-malate in MDA-MB-231 cells compared to healthy breast cells [6]"
"CCO[13C](=O)C[13C](C)=O [1,3-^13C2 ethyl acetoacetate]",632,< 14* a.u.,1027,no conversion can be detected,no conversion can be detected,hydrolysed,approx. 33 times,–,–,–,–,–,–
CC(=O)[13C](=O)O [1-^13C-pyruvate],1853,337 a.u.,2620,–,–,–,–,200,1000,50,increased,40,–
OC[C@H]1OC(O)[C@H](O)[C@@H](O)[C@@H]1O (some centres unmarked) [^13C6-d7-glucose],–,–,–,–,–,–,–,200,500,50,–,10,–
"O=[13C](O)/C=C/[13C](=O)O [1,4-^13C2-fumarate]",–,–,–,–,–,–,–,–,–,–,–,–,significantly higher

# From patent US20150133341A1, “Intra-Operative Cancer Diagnosis Based on a Hyperpolarized Marker” (ALBEDA INNOVATIONS APS, priority 2012, published 2015)
